Data on 3 compounds can be found in ChEMBL document CHEMBL1201862, “PubChem BioAssay data set” (2004).

Each structure is given as a SMILES string. The source made the active and inactive calls.

Common to all, as to type: functional
The target in experiment [1] is Serine/threonine-protein kinase PLK1 (Homo sapiens, UniProt P53350).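 Further: PLK1 measured as one member of a kinome-wide profiling panel.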
Experiment [2] concerns the target RAC-gamma serine/threonine-protein kinase (Homo sapiens, UniProt Q9Y243).
The target of experiment [3] is Cyclin-dependent kinase 19 (Homo sapiens, UniProt Q9BWU1). As to the kind of experiment: Navigating the Kinome. Panel member name: CDC2L6.
The target of experiment [4] is Aurora kinase B (Homo sapiens, UniProt Q96GD4).
Experiment [5] addresses Vascular endothelial growth factor receptor 2 (Homo sapiens, UniProt P35968).
Experiment [6] addresses cAMP-dependent protein kinase catalytic subunit alpha (Homo sapiens, UniProt P17612).
The target in experiment [7] is Dual specificity tyrosine-phosphorylation-regulated kinase 1A (Homo sapiens, UniProt Q13627).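 Further: measured against DYRK1A as one member of a broad kinome profiling panel.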
The target in experiment [8] is Serine/threonine-protein kinase pim-3 (Homo sapiens, UniProt Q86V86).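 Further: value obtained as one member of a broad kinase panel profiling effort.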
The target of experiment [9] is T1, Receptor-type tyrosine-protein kinase FLT3 (Homo sapiens, UniProt P36888).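 Further: FLT3 was tested as one member of a kinome-wide kinase panel.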
T1 sequence (P36888 whole entry): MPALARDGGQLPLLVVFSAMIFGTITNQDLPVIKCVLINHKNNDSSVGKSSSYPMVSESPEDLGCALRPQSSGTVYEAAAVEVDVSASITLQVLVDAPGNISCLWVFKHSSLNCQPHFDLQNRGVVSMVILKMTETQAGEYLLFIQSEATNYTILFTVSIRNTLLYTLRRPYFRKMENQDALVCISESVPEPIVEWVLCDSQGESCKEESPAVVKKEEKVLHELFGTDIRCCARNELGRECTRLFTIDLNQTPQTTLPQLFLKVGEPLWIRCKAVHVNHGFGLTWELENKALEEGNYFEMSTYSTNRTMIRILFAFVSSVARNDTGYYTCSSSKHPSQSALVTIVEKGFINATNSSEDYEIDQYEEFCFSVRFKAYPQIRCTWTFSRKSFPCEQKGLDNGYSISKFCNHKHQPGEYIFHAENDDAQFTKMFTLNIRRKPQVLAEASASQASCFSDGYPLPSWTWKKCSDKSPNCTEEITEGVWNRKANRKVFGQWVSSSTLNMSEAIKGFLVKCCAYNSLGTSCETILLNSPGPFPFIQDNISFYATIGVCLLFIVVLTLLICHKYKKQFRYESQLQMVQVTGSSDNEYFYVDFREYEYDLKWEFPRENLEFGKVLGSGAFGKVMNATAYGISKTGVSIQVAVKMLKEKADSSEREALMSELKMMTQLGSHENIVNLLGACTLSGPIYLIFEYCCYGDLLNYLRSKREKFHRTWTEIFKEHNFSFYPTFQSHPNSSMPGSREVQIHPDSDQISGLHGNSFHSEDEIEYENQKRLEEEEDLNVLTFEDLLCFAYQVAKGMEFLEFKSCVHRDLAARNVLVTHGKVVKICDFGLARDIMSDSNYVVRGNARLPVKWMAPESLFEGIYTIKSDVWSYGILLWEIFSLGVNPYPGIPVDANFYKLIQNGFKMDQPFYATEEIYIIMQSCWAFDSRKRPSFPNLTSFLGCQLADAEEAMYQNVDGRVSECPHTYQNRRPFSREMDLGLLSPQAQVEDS

Experiment [10] deals with Serine/threonine-protein kinase PLK4 (Homo sapiens, UniProt O00444).
The target in experiment [11] is Platelet-derived growth factor receptor beta (Homo sapiens, UniProt P09619).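 Further: value comes from a kinome panel, with PDGFRB tested as one panel member.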
The target in experiment [12] is Insulin receptor (Homo sapiens, UniProt P06213).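 Further: insulin receptor kinase tested as one member of a kinome-wide kinase panel.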
Experiment [13] deals with Protein kinase C theta type (Homo sapiens, UniProt Q04759). As to the kind of experiment: Navigating the Kinome. Panel member name: PRKCQ.
Experiment [14] deals with Serine/threonine-protein kinase pim-1 (Homo sapiens, UniProt P11309).
Experiment [15] addresses Serine/threonine-protein kinase PLK3 (Homo sapiens, UniProt Q9H4B4).
Experiment [16] has as its target RAC-alpha serine/threonine-protein kinase (Homo sapiens, UniProt P31749).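 Further: AKT1 affinity measured as one member of a kinome-wide kinase profiling panel.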
For experiment [17], the target named is Serine/threonine-protein kinase Chk1 (Homo sapiens, UniProt O14757).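 Further: measured as one member of a kinome-wide kinase profiling panel.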
In experiment [18] the target is Aurora kinase A (Homo sapiens, UniProt O14965).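 Further: value from the Navigating the Kinome kinase panel profiling, panel entry STK6.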
Experiment [19] has as its target Macrophage colony-stimulating factor 1 receptor (Homo sapiens, UniProt P07333).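 Further: value comes from the Navigating the Kinome screening panel, CSF1R member.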
The target of experiment [20] is Fibroblast growth factor receptor 1 (Homo sapiens, UniProt P11362).
Experiment [21] addresses Cyclin-dependent kinase 9 (Homo sapiens, UniProt P50750).
The target in experiment [22] is Mitogen-activated protein kinase 12 (Homo sapiens, UniProt P53778).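 Further: measured as one member of a kinome-wide kinase profiling panel.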
For experiment [23], the target named is Mitogen-activated protein kinase 9 (Homo sapiens, UniProt P45984).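 Further: value from a kinome panel profiling assay, MAPK9 panel entry.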
Experiment [24] addresses Leukocyte tyrosine kinase receptor (Homo sapiens, UniProt P29376). As to the kind of experiment: Navigating the Kinome. Panel member name: LTK.
Experiment [25] has as its target Activin receptor type-1 (Homo sapiens, UniProt Q04771). As to the kind of experiment: Navigating the Kinome. Panel member name: ACVR1.
The target of experiment [26] is Tyrosine-protein kinase Lck (Homo sapiens, UniProt P06239).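 Further: lck was assayed as one member of a kinase panel.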
Experiment [27] has as its target Platelet-derived growth factor receptor alpha (Homo sapiens, UniProt P16234). As to the kind of experiment: Navigating the Kinome. Panel member name: PDGFRA.
Experiment [28] has as its target BDNF/NT-3 growth factors receptor (Homo sapiens, UniProt Q16620).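 Further: NTRK2 measured as one member of a broad kinome-wide kinase profiling panel.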
Experiment [29] addresses Proto-oncogene tyrosine-protein kinase Src (Homo sapiens, UniProt P12931).

Chain of Platelet-derived growth factor receptor beta (P09619 whole entry): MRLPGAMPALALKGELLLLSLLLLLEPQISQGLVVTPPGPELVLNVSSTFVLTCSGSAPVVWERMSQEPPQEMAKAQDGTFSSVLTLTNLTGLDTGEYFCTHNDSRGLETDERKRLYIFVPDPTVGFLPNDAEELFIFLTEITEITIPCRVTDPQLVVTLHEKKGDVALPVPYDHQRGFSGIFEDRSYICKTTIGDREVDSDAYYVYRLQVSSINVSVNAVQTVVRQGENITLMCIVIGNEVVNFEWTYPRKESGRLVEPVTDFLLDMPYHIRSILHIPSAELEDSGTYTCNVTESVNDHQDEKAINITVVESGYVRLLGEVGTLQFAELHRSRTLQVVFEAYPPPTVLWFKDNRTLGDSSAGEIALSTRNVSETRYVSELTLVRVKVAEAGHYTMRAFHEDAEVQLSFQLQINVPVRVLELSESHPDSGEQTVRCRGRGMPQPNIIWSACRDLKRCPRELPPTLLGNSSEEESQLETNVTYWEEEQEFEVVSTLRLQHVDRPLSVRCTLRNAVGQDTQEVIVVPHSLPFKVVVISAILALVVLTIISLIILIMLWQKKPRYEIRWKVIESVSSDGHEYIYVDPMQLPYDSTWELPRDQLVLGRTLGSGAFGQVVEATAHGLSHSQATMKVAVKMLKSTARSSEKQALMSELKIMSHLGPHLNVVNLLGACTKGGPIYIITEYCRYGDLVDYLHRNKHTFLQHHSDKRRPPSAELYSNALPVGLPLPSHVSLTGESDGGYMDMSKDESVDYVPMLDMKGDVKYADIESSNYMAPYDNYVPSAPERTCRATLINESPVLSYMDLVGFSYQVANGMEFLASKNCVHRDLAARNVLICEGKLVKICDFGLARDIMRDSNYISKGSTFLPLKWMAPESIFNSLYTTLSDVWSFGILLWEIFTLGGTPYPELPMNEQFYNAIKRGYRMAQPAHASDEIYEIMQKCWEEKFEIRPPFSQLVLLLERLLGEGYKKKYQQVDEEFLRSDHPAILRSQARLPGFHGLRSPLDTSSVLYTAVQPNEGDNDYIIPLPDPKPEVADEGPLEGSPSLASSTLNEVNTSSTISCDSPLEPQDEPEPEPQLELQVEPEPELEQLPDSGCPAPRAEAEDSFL
Chain of Serine/threonine-protein kinase PLK3 (Q9H4B4 whole entry): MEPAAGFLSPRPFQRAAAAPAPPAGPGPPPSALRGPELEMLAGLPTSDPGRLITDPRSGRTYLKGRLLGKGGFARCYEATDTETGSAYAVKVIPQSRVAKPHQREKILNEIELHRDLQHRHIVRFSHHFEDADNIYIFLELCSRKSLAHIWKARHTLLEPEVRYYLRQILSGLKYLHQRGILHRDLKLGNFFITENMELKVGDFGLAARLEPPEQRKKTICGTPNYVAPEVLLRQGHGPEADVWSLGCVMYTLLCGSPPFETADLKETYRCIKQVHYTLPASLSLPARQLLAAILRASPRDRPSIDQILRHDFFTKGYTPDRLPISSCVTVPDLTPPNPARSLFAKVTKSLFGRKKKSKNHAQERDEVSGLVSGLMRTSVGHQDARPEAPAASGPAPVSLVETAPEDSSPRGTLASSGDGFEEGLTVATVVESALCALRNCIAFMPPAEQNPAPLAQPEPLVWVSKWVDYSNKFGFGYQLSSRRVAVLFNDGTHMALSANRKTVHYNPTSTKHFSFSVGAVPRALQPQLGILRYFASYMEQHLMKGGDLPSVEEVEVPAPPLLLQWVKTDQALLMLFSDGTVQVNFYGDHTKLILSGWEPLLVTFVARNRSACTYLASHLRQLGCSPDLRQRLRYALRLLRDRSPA
Chain of BDNF/NT-3 growth factors receptor (Q16620 whole entry): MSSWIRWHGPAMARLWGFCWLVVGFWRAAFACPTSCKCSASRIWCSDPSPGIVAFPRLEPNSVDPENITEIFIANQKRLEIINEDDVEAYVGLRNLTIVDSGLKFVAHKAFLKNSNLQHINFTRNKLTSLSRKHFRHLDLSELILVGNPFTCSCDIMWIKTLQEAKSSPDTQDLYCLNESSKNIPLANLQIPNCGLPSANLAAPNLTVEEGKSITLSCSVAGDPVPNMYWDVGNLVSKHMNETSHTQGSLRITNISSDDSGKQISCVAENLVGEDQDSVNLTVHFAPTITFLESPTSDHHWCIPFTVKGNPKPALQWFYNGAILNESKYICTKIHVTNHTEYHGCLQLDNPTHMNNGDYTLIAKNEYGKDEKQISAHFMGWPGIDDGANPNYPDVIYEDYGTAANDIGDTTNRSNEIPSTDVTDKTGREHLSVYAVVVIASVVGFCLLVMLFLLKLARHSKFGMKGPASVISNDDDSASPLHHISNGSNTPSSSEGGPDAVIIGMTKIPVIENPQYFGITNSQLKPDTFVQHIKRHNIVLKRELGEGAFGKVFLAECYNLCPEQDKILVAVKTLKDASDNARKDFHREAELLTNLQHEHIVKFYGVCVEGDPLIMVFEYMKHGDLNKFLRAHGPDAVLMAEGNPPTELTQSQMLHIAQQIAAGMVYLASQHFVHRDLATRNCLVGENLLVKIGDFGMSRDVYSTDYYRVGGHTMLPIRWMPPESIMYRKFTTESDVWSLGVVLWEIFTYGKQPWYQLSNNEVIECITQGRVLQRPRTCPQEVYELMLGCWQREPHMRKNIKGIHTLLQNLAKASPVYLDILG
Chain of Activin receptor type-1 (Q04771 whole entry): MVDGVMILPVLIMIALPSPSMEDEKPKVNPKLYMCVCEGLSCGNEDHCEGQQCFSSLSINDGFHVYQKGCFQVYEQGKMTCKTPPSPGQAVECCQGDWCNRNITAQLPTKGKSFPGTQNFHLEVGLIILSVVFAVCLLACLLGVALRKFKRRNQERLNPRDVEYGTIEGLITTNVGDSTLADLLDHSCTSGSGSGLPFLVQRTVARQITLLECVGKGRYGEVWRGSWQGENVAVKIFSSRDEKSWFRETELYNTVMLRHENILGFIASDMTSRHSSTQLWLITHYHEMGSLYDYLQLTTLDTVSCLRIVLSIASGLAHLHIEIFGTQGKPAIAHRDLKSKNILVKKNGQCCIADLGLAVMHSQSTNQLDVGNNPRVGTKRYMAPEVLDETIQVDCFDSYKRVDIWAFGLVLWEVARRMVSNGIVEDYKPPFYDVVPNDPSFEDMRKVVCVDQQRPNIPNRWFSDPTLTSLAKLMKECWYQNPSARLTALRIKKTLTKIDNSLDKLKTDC
Chain of RAC-gamma serine/threonine-protein kinase (Q9Y243 whole entry): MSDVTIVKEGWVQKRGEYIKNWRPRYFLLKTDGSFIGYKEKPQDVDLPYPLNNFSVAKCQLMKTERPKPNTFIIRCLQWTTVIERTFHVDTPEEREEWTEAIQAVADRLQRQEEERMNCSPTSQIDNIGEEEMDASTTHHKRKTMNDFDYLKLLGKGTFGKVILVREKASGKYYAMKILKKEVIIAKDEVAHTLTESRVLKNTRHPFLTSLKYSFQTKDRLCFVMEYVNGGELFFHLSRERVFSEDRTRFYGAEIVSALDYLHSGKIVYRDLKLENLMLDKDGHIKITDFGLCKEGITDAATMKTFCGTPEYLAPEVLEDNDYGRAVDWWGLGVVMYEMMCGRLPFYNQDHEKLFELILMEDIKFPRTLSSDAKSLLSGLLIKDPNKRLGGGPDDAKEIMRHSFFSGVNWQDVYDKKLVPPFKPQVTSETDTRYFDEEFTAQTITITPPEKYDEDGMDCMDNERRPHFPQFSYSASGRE
Chain of Cyclin-dependent kinase 9 (P50750 whole entry): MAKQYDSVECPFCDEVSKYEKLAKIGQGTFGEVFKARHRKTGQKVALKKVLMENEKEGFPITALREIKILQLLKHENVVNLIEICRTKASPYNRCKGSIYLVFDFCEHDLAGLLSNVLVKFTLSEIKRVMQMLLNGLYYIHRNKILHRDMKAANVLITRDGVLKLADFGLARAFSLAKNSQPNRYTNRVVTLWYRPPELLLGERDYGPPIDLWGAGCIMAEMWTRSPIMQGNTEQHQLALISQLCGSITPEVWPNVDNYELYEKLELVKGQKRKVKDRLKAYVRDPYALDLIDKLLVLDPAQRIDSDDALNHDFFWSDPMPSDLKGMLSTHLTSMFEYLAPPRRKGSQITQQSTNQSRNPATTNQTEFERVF
Chain of Proto-oncogene tyrosine-protein kinase Src (P12931 2-536 limits assumed): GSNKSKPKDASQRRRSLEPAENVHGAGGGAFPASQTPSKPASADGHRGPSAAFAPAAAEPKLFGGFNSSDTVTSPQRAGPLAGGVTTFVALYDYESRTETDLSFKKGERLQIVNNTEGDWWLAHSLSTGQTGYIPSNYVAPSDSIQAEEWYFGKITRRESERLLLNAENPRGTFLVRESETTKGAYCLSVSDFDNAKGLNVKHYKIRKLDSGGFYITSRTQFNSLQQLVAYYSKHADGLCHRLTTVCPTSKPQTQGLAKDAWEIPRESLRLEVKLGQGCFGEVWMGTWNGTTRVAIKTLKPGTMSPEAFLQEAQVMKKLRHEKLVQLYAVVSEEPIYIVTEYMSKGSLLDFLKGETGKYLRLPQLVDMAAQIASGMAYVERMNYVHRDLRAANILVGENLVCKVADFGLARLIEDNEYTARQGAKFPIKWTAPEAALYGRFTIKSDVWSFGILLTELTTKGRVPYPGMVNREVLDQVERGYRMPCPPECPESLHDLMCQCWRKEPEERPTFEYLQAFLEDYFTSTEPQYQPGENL
Chain of Aurora kinase A (O14965 whole entry): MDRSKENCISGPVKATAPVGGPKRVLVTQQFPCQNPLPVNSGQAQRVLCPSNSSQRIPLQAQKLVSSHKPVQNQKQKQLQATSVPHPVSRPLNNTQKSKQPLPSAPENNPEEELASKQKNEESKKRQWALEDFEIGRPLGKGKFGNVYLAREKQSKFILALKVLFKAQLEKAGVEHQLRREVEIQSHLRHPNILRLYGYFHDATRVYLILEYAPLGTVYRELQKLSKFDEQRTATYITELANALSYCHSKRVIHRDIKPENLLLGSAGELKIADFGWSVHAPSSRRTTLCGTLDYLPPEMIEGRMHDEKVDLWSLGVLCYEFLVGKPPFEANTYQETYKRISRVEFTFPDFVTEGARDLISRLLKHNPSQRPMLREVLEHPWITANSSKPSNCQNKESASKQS

In general, Ki refers to the equilibrium dissociation constant of an inhibitor or competing ligand from its target. As to `O=C(Nc1ccccc1)Nc1ccccn1`, the Ki was > 79.4 µM (inactive) in experiment [1]; > 100 µM (inactive) in experiment [2]; > 100 µM (inactive) in experiment [3]; 79.4 µM (active) in [4]; > 100 µM (inactive) in experiment [5]; > 50.1 µM (inactive) in experiment [6]. Further, the Ki in experiment [7] is > 79.4 µM (inactive); in experiment [8] it was 50.1 µM (active); in experiment [9] it was 3.16 µM (active); in experiment [10] it was > 39.8 µM (inactive); in experiment [11], > 79.4 µM (inactive); in [12], > 50.1 µM (inactive). The Ki in experiment [13] was > 100 µM (inactive); in [14] it was 79.4 µM (active); in experiment [15], > 79.4 µM (inactive); in experiment [16] it was > 79.4 µM (inactive); in [17], > 79.4 µM (inactive); in [18] it was > 63.1 µM (inactive). Moreover, the Ki in experiment [19] was > 63.1 µM (inactive); in [20], > 50.1 µM (inactive); in experiment [21] it was > 63.1 µM (inactive).
Turning to `CN(C)CCCN(C)C(=O)C1Cc2[nH]cnc2C2(CCCCC2)N1` (stereo unspecified), the Ki in experiment [22] is 3.16 µM (active); in experiment [23], 2.51 µM (active).
For `COc1cc(Nc2ncc3c(n2)-c2ccc(Cl)cc2C(c2c(F)cccc2OC)=NC3)ccc1C(=O)O` [ALISERTIB], the Ki in experiment [24] was 398 nM (active); in experiment [25], > 3.98 µM (inactive); in [26] it was 316 nM (active); in [6], 0.631 µM (active); in experiment [27] it was > 1 µM (inactive); in experiment [11], > 1 µM (inactive). Moreover, the values for the Ki in experiment [28] and in experiment [29] were 1 µM (active) and 316 nM (active), respectively.
